The record followed here is ChEMBL document CHEMBL5113473, “Synthesis and biological evaluation of new 2‑substituted‑4‑amino-quinolines and -quinazoline as potential antifungal agents” (Bioorg Med Chem Lett, 2022).

The MIC is the lowest concentration that inhibits growth of the organism. In general, CC50 refers to the concentration that lowers cell viability or growth by half.

In brackets after ≈: the same amount, converted by molar mass. Activity calls are given as the source filed them. No cut-off for these calls is given here.

Data set [1] has as its system Candida tropicalis. Nature of the data set: Antifungal activity against Candida tropicalis ATCC 1369 assessed as reduction in fungal growth by CLSI protocol based broth microdilution method. Type of data set: functional. A general note: Dilution methods test growth across graded concentrations, often in twofold steps.
For data set [2], the system named is Cryptococcus neoformans. Briefly: Antifungal activity against Cryptococcus neoformans ATCC 32045 assessed as reduction in fungal growth by CLSI protocol based broth microdilution method. The data set is classed as functional.
In data set [3] the test system is Aspergillus fumigatus. Nature of the data set: Antifungal activity against Aspergillus fumigatus AS 3.3913 assessed as reduction in fungal growth by CLSI protocol based broth microdilution method. The data set is classed as functional.
The subject of data set [4] is Candida albicans. Nature of the data set: Antifungal activity against Candida albicans ATCC 10231 assessed as reduction in fungal growth by CLSI protocol based broth microdilution method. Type of data set: functional.
For data set [5], the system named is Candida albicans. Briefly: Fungistatic activity against Candida albicans ATCC 10231 assessed as reduction in fungal growth at 2 to 4 times MIC incubated for 36 hrs by Time kill assay. Type of data set: functional, organism-based. As to conditions: DDE = dose-dependent effect.
In data set [6] the test system is Candida albicans. Briefly: Fungistatic activity against Candida albicans ATCC 10231 assessed as reduction in fungal growth at 4 times MIC incubated for 12 hrs by Time kill assay. Type of data set: functional, organism-based.
Data set [7] is described as follows: Metabolic stability in mouse plasma assessed as parent compound remaining at 2 to 8 times. Type of data set: ADME, cell-free.
The test system of data set [8] is Candida albicans. Nature of the data set: Antibiofilm activity against Candida albicans ATCC 10231 assessed as inhibition of biofilm viability by XTT reduction assay. Type of data set: functional, organism-based. For orientation: Tetrazolium assays rely on reduction of a dye to a coloured formazan, in cell work by metabolically active cells.
Data set [9] can be described thus: Cytotoxicity against human HUVEC cells assessed as reduction in cell viability by CCK-8 assay. Type of data set: toxicity, cell-based.
A short description of data set [10]: Selectivity index, ration of CC50 for cytotoxicity against human HUVEC cells to MIC for antifungal activity against Candida albicans ATCC 10231. Type of data set: toxicity, cell-based. As to conditions: read-out: Selectivity Index.
Data set [11] deals with Candida albicans. Briefly: Antifungal activity against Candida albicans ATCC 10231 assessed as resistance development by measuring increase in MIC at 0.5 ug/ml after 20 passages by CLSI protocol based broth microdilution method. The settings on record: dose 0.5 µg/ml. The data set is classed as functional.
The subject of data set [12] is Cell membrane. Nature of the data set: Induction of cell membrane damage in Candida albicans ATCC 10231 at 2 to 4 times MIC by propidium iodide staining based fluorescence assay.

For the compound `Cc1ccc(Nc2cc(-c3ccc(C)cc3)nc3ccccc23)cc1.Cl`, the MIC in data set [1] is 16 µg/mL; in [2], 8 µg/mL; in data set [3], 4 µg/mL; in [4], 8 µg/mL. Moreover, the Activity entry in data set [5] is “Dde”. For the same compound, the result in [6] and in [8] was Active. Moreover, the Stability in data set [7] is on record as 80%. Besides, the CC50 in [9] was found to be 36 µM. Also, in data set [10], the selectivity ratio was 1.63.
On to `Cc1ccc(Nc2cc(-c3ccc(C(C)(C)C)cc3)nc3ccccc23)cc1.Cl`, for which the MIC amounted to 32 µg/mL in data set [1], 4 µg/mL in [2], 2 µg/mL in data set [3] and 32 µg/mL in [4].
As for `CCN(c1ccc(C)cc1)c1cc(-c2cccc(C)c2)nc2ccccc12`, the MIC in data set [1] was 512 µg/mL (≈ 1450 µM); in data set [2], 64 µg/mL (≈ 182 µM); in data set [3], 512 µg/mL (≈ 1450 µM); in data set [4], 512 µg/mL (≈ 1450 µM).
In the case of `Cc1ccc(Nc2cc(-c3ccccc3C(F)(F)F)nc3ccccc23)cc1.Cl`, the MIC was 256 µg/mL in data set [1], 4 µg/mL in data set [2], 128 µg/mL in [3] and over 512 µg/mL in [4].
As for `Cc1ccc(Nc2cc(-c3cccc(C(F)(F)F)c3)nc3ccccc23)cc1.Cl`, the minimum inhibitory concentration (MIC) is 512 µg/mL in data set [1], 512 µg/mL in data set [2], over 512 µg/mL in [3] and over 512 µg/mL in data set [4].
Consider `CCN(c1ccc(C)cc1)c1cc(-c2ccc(C)cc2)nc2ccccc12`, for which the MIC in data set [1] was over 512 µg/mL; in data set [2], 128 µg/mL (≈ 363 µM); in data set [3], 512 µg/mL (≈ 1450 µM); in data set [4], over 512 µg/mL.
In the case of `Cc1ccc(Nc2cc(-c3cccc(F)c3)nc3ccccc23)cc1.Cl`, the MIC in data set [1], in data set [2], in data set [3] and in data set [4] was over 512 µg/mL each time.
With `COc1ccccc1-c1cc(Nc2ccc(C)cc2)c2ccccc2n1.Cl`, the MIC came to 32 µg/mL in data set [1], 32 µg/mL in data set [2], 8 µg/mL in data set [3] and 32 µg/mL in data set [4].
On to `Cc1ccc(Nc2cc(-c3ccco3)nc3ccccc23)cc1.Cl`, for which the MIC in [1] turned out to be 16 µg/mL; in data set [2], 32 µg/mL; in data set [3] it was 128 µg/mL; in data set [4], 32 µg/mL.
As for `Cc1ccc(Nc2cc(C3CC3)nc3ccccc23)cc1.Cl`, the MIC in data set [1] was determined as 128 µg/mL; in data set [2] it was 32 µg/mL; in [3] it was 512 µg/mL; in [4], 128 µg/mL.
As to `Cc1ccc(Nc2cc(-c3ccccc3C)nc3ccccc23)cc1.Cl`, the MIC came to 32 µg/mL in [1], 32 µg/mL in data set [2], 32 µg/mL in [3] and 16 µg/mL in data set [4].
For the compound `Cc1ccc(Nc2cc(-c3cccc(Cl)c3)nc3ccccc23)cc1.Cl`, the MIC in data set [1], in data set [2], in data set [3] and in data set [4] was over 512 µg/mL in each case.
Take `Cc1ccc(Nc2cc(-c3cccs3)nc3ccccc23)cc1.Cl`: the MIC in data set [1] was determined as 16 µg/mL; in data set [2], 4 µg/mL; in data set [3] it was 16 µg/mL; in data set [4], 8 µg/mL.
Consider `Cc1ccc(Nc2cc(-c3cccc(Br)c3)nc3ccccc23)cc1.Cl`, for which the MIC in data set [1], in data set [2], in data set [3] and in data set [4] was over 512 µg/mL throughout.
With `COc1ccc(-c2cc(Nc3ccc(C)cc3)c3ccccc3n2)cc1.Cl`, the MIC in [1] is 16 µg/mL; in data set [2], 8 µg/mL; in data set [3] it was 8 µg/mL; in [4], 16 µg/mL.
As for `Cc1ccc(Nc2cc(-c3ccc(C(F)(F)F)cc3)nc3ccccc23)cc1.Cl`, the minimal inhibitory concentration (MIC) was over 512 µg/mL in data set [1], 16 µg/mL in data set [2], over 512 µg/mL in data set [3] and over 512 µg/mL in data set [4].
Consider `Cc1ccc(Nc2cc(C)nc3ccccc23)cc1.Cl`, for which the MIC in [1] stood at 256 µg/mL; in data set [2], 256 µg/mL; in [3], 128 µg/mL; in data set [4], 256 µg/mL.
Consider `Cc1ccc(Nc2cc(C3CCCCC3)nc3ccccc23)cc1.Cl`, for which the MIC is 16 µg/mL in [1], 32 µg/mL in [2], over 512 µg/mL in [3] and 16 µg/mL in data set [4].
For `Cc1ccc(Nc2cc(-c3ccc4ccccc4c3)nc3ccccc23)cc1.Cl`, the MIC in data set [1] worked out at 256 µg/mL; in [2] it was 4 µg/mL; in [3] it was 64 µg/mL; in data set [4], 128 µg/mL.
As to `C[C@@H]1[C@H](O)[C@@H](C)/C=C/C=C/C=C/C=C/C=C/C=C/C=C/[C@H](O[C@@H]2O[C@H](C)[C@@H](O)[C@H](N)[C@@H]2O)C[C@@H]2O[C@](O)(C[C@@H](O)C[C@@H](O)[C@H](O)CC[C@@H](O)C[C@@H](O)CC(=O)O[C@H]1C)C[C@H](O)[C@H]2C(=O)O` [AMPHOTERICIN B], the MIC in [1] was 4 µg/mL (≈ 4.33 µM); in data set [2], 1 µg/mL (≈ 1.08 µM); in [3], over 512 µg/mL; in [4], 1 µg/mL (≈ 1.08 µM); in data set [11], 128 µg/mL (≈ 139 µM). In data set [5], the Activity result is “Dde”. In [12], the outcome was Active. Also, the cytotoxic concentration (CC50) in [9] came out at 4.92 µM. In addition, in data set [10], the selectivity ratio was found to be 4.55.
As for `Cc1ccc(Nc2cc(C3CCC3)nc3ccccc23)cc1.Cl`, the MIC in [1] was 64 µg/mL; in data set [2] it was 64 µg/mL; in data set [3], 64 µg/mL; in data set [4] it was 128 µg/mL.
As for `Cc1ccc(Nc2cc(-c3cccnc3)nc3ccccc23)cc1.Cl`, the minimal inhibitory concentration (MIC) in data set [1] is 256 µg/mL; in [2], over 512 µg/mL; in data set [3], over 512 µg/mL; in data set [4] it was 512 µg/mL.
`Cc1ccc(Nc2cc(-c3cccc(C)c3)nc3ccccc23)cc1.Cl`: the MIC in [1] turned out to be 32 µg/mL; in data set [2], 128 µg/mL; in data set [3], 128 µg/mL; in data set [4], 8 µg/mL.
In the case of `CCN(c1ccc(C)cc1)c1cc(-c2ccccc2OC)nc2ccccc12`, the MIC was 256 µg/mL (≈ 695 µM) in data set [1], 16 µg/mL (≈ 43.4 µM) in data set [2], 256 µg/mL (≈ 695 µM) in data set [3] and over 512 µg/mL in data set [4].
In the case of `Cc1ccc(Nc2nc(-c3ccccc3)nc3ccccc23)cc1.Cl`, the MIC in data set [1], in [2], in [3] and in data set [4] was over 512 µg/mL in each case.
In the case of `COc1cccc(-c2cc(Nc3ccc(C)cc3)c3ccccc3n2)c1.Cl`, the minimal inhibitory concentration (MIC) in [1] was found to be 16 µg/mL; in [2], 16 µg/mL; in data set [3], 32 µg/mL; in data set [4], 8 µg/mL.
Regarding `Cc1ccc(Nc2cc(-c3ccc(Cl)cc3)nc3ccccc23)cc1.Cl`, the MIC in [1] is 128 µg/mL; in data set [2] it was 32 µg/mL; in [3], over 512 µg/mL; in data set [4], 64 µg/mL.
As for `Cc1ccc(Nc2cc(-c3ccccc3F)nc3ccccc23)cc1.Cl`, the MIC in data set [1], in [2], in data set [3] and in data set [4] was over 512 µg/mL in each case.
For `Cc1ccc(Nc2ccnc3ccccc23)cc1.Cl`, the MIC in data set [1] worked out at 512 µg/mL; in data set [2] it was 256 µg/mL; in [3], 128 µg/mL; in data set [4] it was 256 µg/mL.
Consider `Cc1ccc(Nc2cc(-c3ccccc3Br)nc3ccccc23)cc1.Cl`, for which the MIC in data set [1] is 128 µg/mL; in data set [2] it was 8 µg/mL; in data set [3], 64 µg/mL; in [4], over 512 µg/mL.
On to `Cc1ccc(Nc2cc(-c3ccc(Br)cc3)nc3ccccc23)cc1.Cl`, for which the MIC in data set [1] was over 512 µg/mL; in data set [2], 512 µg/mL; in [3] it was over 512 µg/mL; in data set [4] it was over 512 µg/mL.
In the case of `Cc1ccc(Nc2cc(-c3ccccc3)nc3ccccc23)cc1.Cl`, the MIC worked out at 32 µg/mL in [1], 32 µg/mL in data set [2], 64 µg/mL in [3] and 32 µg/mL in data set [4].
Turning to `Cc1ccc(Nc2cc(-c3ccccc3Cl)nc3ccccc23)cc1.Cl`, the minimal inhibitory concentration (MIC) in data set [1] was 64 µg/mL; in data set [2], 8 µg/mL; in data set [3], 512 µg/mL; in data set [4], over 512 µg/mL.
Regarding `Cc1ccc(Nc2cc(-c3ccc(F)cc3)nc3ccccc23)cc1.Cl`, the MIC in data set [1], in [2], in data set [3] and in data set [4] was over 512 µg/mL throughout.
Take `Cc1ccc(Nc2cc(C3CCCC3)nc3ccccc23)cc1.Cl`: the MIC was determined as 32 µg/mL in data set [1], 64 µg/mL in data set [2], 16 µg/mL in data set [3] and 64 µg/mL in [4].
